# Where two headings read alike, the source gives them in different places.
# Legend:
# [1] = system: other AKR1C isoforms; experiment: Inhibition of isolated AKR1C enzymes; type: biochemical; conditions: 10 μM; unpublished data
# [2] = system: MCF7 cells; experiment: Cell proliferation (sulforhodamine B), 5 days; type: cell-based, human
# Description: (§1) Cells were seeded into 96-well plates in hormone-deprived media at appropriate seeding densities (5000–20,000 cells per well) to reach approximately 70% confluency at the time of sampling and left to settle for 48 h at 37°C and 5% CO2. […] The plates were returned to the incubator for 5 days before fixing in 10% trichloroacetic acid (Merck Millipore) at 4°C for 1 h and staining with 0.4% sulforhodamine B (Sigma-Aldrich) in 1% acetic acid for 30 min in the dark at room temperature. Plates were washed in 1% acetic acid, dried, and incubated with unbuffered Tris base (10 mM; Serva) for 30 min on a plate shaker in the dark to solubilize the stain. The plates were read on a BioTek EL808 microplate reader at an absorbance of 490 nm with a reference wavelength of 450 nm.
# (§2) Finally, we investigated whether inhibiting AKR1C3-dependent testosterone or 17β-estradiol production could prevent androstenedione- or estrone-stimulated cell proliferation in CRPC or ER-positive breast cancer cells.
# (§3) Neither androstenedione nor estrone-stimulated cell proliferation in the HCT116 AKR1C3 and wild-type cell lines (data not shown).
# [3] = system: 22RV1 cells; experiment: Testosterone ELISA after androstenedione stimulation; type: cell-based, human
# Description: Cells were seeded into 96-well plates in hormone-deprived media at appropriate seeding densities [10,000–50,000 cells per well for all lines except HCC1500 (100,000 cells per well; 11β-PGF2α ELISA)] to reach approximately 70% confluency at the time of sampling and were left to settle for 24 h at 37°C and 5% CO2. […] removed for analysis of 11β-PGF2α, testosterone, or 17β-estradiol by ELISA as per manufacturer’s instructions (11β-PGF2α and testosterone ELISA, Cayman Chemical Company; 17β-estradiol ELISA, Oxford Biomedical Research), and cells were fixed for sulforhodamine B analysis as described below. Each ELISA plate was read at a wavelength of 405 nm (11β-PGF2α and testosterone) or 650 nM (17β-estradiol) on a SpectraMax M2 microplate reader (Molecular Devices) and quantitated against a standard curve generated in hormone-deprived culture media. Cross-reactivity to PGD2, androstenedione, or estrone was accounted for by adding these to cell-free wells of each ELISA plate.
# (§4) Since AKR1C3 has been implicated in the development of CRPC because of its ability to produce testosterone intratumorally from circulating androstenedione, we determined testosterone concentrations in the prostate cancer cell lines and known high and low AKR1C3-expressing cells after stimulation with androstenedione for 24 h.
# [4] = system: T47D AKR1C3 cells; experiment: Cell proliferation (sulforhodamine B), 5 days; type: cell-based, human; conditions: 10 μM, estrone up to 10 nM
# Description: as §1, §3
# [5] = system: T47D cells; experiment: Cell proliferation (sulforhodamine B), 5 days; type: cell-based, human; conditions: 10 μM, estrone up to 10 nM
# Description: as §1, §3
# [6] = system: 22RV1 cells; experiment: Cell proliferation (sulforhodamine B), 5 days; type: cell-based, human; conditions: 10 μM
# Description: as §1, §2
# [7] = system: LAPC4 AKR1C3 cells; experiment: Cell proliferation (sulforhodamine B), 5 days; type: cell-based, human
# Description: as §1, §2
# [8] = system: LAPC4 wild-type cells; experiment: Cell proliferation (sulforhodamine B), 5 days; type: cell-based, human; conditions: 10 μM
# Description: as §1, §2
# [9] = system: LAPC4 wild-type cells; experiment: PSA concentration after androstenedione stimulation; type: cell-based, human; conditions: 10 μM; androstenedione up to 10 nM, 24 h
# Description: Cells were seeded at 20,000 cells per well (LAPC4, LAPC4 AKR1C3) or 50,000 cells per well (22RV1) into 96-well plates in hormone-deprived media and left to settle for 24 h at 37°C and 5% CO2. […] The plates were returned to the incubator for 24 h, before the cell supernatant was removed and frozen for PSA analysis. Determination of total PSA concentration was carried out at LabPLUS, Auckland City Hospital, by immunoassay on a Cobas® e601 analyzer according to manufacturer’s instructions (Roche).
# Next, PSA expression was determined in the CRPC cell lines that were sensitive to SN33638-mediated inhibition of testosterone (LAPC4 AKR1C3 and 22RV1 with LAPC4 wild-type cells acting as a negative control) as a biomarker of AR activity. […] Androstenedione stimulation promoted PSA production in all three cell lines, with the highest PSA levels observed in LAPC4 AKR1C3 cells.
# [10] = system: HCT116 AKR1C3 cells; experiment: Testosterone ELISA after androstenedione stimulation; type: cell-based, human; conditions: Homo sapiens, HCT-116; for inhibition at 10 µM: read-out: Inhibition of testosterone levels
# Description: (§5) Cells were seeded into 96-well plates in hormone-deprived media at appropriate seeding densities [10,000–50,000 cells per well for all lines except HCC1500 (100,000 cells per well; 11β-PGF2α ELISA)] to reach approximately 70% confluency at the time of sampling and were left to settle for 24 h at 37°C and 5% CO2. Inhibitors were added to the plates at single or multiple concentrations for 1 h prior to administration of equimolar (28 nM) concentrations of PGD2 (11β-PGF2α ELISA), androstenedione (testosterone ELISA), or estrone (17β-estradiol ELISA). The plates were returned to the incubator for a further 24 h before cell supernatant was removed for analysis of 11β-PGF2α, testosterone, or 17β-estradiol by ELISA as per manufacturer’s instructions (11β-PGF2α and testosterone ELISA, Cayman Chemical Company; 17β-estradiol ELISA, Oxford Biomedical Research), and cells were fixed for sulforhodamine B analysis as described below. Each ELISA plate was read at a wavelength of 405 nm (11β-PGF2α and testosterone) or 650 nM (17β-estradiol) on a SpectraMax M2 microplate reader (Molecular Devices) and quantitated against a standard curve generated in hormone-deprived culture media. Cross-reactivity to PGD2, androstenedione, or estrone was accounted for by adding these to cell-free wells of each ELISA plate.
# as §4
# [11] = system: NCI-H460 cells; experiment: as above; type: cell-based, human; conditions: Homo sapiens, NCI-H460; 10 μM; 28 nM androstenedione, 24 h; read-out: Inhibition of testosterone levels
# Description: as §5, §4
smiles,measurement,setting,value
CC1CCCCN1S(=O)(=O)c1ccc(N2CCCC2=O)cc1 (stereo not shown) [SN33638],Inhibition against each isolated enzyme (other AKR1C isoforms),[1],< 14%
same,Reduction of unstimulated cell proliferation,[2]; 10 μM,7.3%
same,inhibition at 10 µM,"[2]; Homo sapiens, MCF7, 120 h, 10 nM estrone, read-out: Inhibition of estrone-stimulated cell proliferation",14.9%
same,Effect on testosterone levels,"[3]; 5 days after stimulation with up to 10 nM androstenedione, data not shown",no inhibitory effect
same,inhibition at 10 µM,"[3]; Homo sapiens, 22Rv1, 10 μM, 28 nM androstenedione, 24 h, read-out: Inhibition of testosterone levels",50.8%
same,Effect on estrone-stimulated cell proliferation,[4],not significantly inhibited
same,Effect on estrone-stimulated cell proliferation,[5],not significantly inhibited
same,Effect on androstenedione-stimulated cell proliferation,[6],no effect
same,Reduction in androstenedione-stimulated cell proliferation,"[7]; 10 μM, 1 nM androstenedione, non-significant",45.9%
same,inhibition at 10 µM,"[7]; Homo sapiens, LAPC4, 120 h, 0.1 nM androstenedione, read-out: Inhibition of androstenedione-stimulated cell proliferation",101%
same,Effect on androstenedione-stimulated cell proliferation,[8],no effect
same,Effect on PSA formation,[9],no significant effect
same,inhibition at 10 µM,"[10]; 10 μM alone, Figure 4D",73.7%
same,inhibition at 10 µM,"[10]; 10 μM, 28 nM androstenedione, 24 h, Figure 4B",74.2%
same,EC50,"[10]; HCT116 AKR1C3 cells, 28 nM androstenedione, 24 h, read-out: EC50 of inhibition of testosterone production",7.4 ± 1.2 nM
same,inhibition at 10 µM,[11],54.1%

# Source: PMC4061482 (Frontiers in Oncology, 2014)
